From PMC13489962, “Small-molecule modulation of β-arrestins” (Nature, 2026)

How the values were obtained:
[1] = system: β2AR desensitization (cAMP); assay: FRET (ICUE2) cAMP accumulation, β2AR desensitization; type: cell-based; settings: 40 μM, 5 min; Iso 10 μM; HEK293 cells stably expressing β2AR
Description: To measure cellular cAMP production in live cells mediated by stimulatory G protein, Gαs-coupled β2AR activation, FRET-based Epac sensors were used as described previously. The Epac2 (ICUE2) sensor contains a CFP and YFP FRET pair. HEK293 cells stably expressing ICUE2 were plated in poly-D-lysine-coated, black, clear-bottom 96-well plates (Corning) at a density of 50,000 cells per well. At least 16 h after plating, cells were washed with PBS and incubated in HEPES-buffered saline solution (10 mM HEPES, 150 mM NaCl, 5 mM KCl, 1.5 mM MgCl2, 1.5 mM CaCl2, 10 mM glucose, 0.2% BSA, pH 7.4) for 1 h at 37 °C. Cells were then treated with either β-arrestin small-molecule modulators (40 μM) or DMSO for 5 min, and baseline fluorescence was monitored. Real-time cAMP measurement was initiated by stimulating cells with 10 μM Iso at 37 °C. FRET changes corresponding to cAMP accumulation were measured as changes in the background-subtracted 480 nm/535 nm fluorescence emission ratio (CFP/YFP), reflecting changes in cAMP levels. The entire cAMP accumulation profile was quantified by calculating the AUC for the time course. To assess the effect of modulators on the agonist-induced cAMP response, AUC values were expressed as a percentage of the response to Iso in the presence of DMSO (set as 100%), enabling comparison of the effect of each modulator relative to this agonist-alone control.

[2] = target: T1, βARR1–SRC interaction (Rattus norvegicus, UniProt P29066); assay: Flag pulldown of βARR1 with SRC; type: biochemical; settings: 20-fold molar excess of compound, 30 min
T1 construct: made in house
T1 sequence (P29066 whole entry): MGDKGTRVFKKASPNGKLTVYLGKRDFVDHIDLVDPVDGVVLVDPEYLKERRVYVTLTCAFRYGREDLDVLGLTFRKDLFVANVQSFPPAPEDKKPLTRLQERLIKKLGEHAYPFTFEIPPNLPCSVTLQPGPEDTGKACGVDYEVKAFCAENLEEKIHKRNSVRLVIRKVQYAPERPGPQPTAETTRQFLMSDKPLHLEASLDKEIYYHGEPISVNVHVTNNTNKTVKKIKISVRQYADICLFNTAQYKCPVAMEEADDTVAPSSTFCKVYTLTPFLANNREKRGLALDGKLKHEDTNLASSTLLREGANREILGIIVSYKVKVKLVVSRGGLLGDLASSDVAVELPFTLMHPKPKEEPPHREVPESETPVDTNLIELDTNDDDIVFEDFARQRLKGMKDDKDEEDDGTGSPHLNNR
Description: To assess the effects of the compounds on βARR1 interactions with its effector proteins SRC and JNK3, βARR1–Flag (5 μM) was incubated with a 20-fold molar excess of Cmpd-5, Cmpd-46 or Cmpd-64 for 30 min at room temperature. Subsequently, 15 μM of SRC or JNK3 was added. To evaluate compound effects on βARR1–ERK2 binding, βARR1 (15 μM) was pre-incubated with a 20-fold molar excess of Cmpd-5, Cmpd-46 or Cmpd-64 for 30 min at room temperature, followed by the addition of 5 μM ERK2–Flag. Afterward, 50 μl of anti-Flag M2 affinity gel (Millipore Sigma) was added, and the mixtures were incubated for 1 h at room temperature with rotation. The resin was then collected by centrifugation and washed 3 times with 1 ml of 20 mM HEPES (pH 7.5), 100 mM NaCl. Bound proteins were eluted using 0.2 mg ml^−1 Flag peptide in 20 mM HEPES (pH 7.5), 100 mM NaCl, mixed with Laemmli sample buffer (Bio-Rad), and analysed by SDS–PAGE followed by western blotting. Detection was performed using monoclonal anti-Flag M2-peroxidase (HRP) antibody (1:2,000, Sigma-Aldrich A8592, RRID:AB_439702) for βARR1–Flag and ERK2–Flag; polyclonal A1CT antibody[76] (1:5,000) for βARR1; anti-SRC monoclonal antibody (1:10,000, EMD Millipore 05-184, RRID:AB_2302631) for SRC; and anti-JNK3 monoclonal antibody (1:5,000, Cell Signaling 2305, RRID:AB_2281744) for JNK3. Western blot images were taken using Bio-Rad ChemiDoc system and the densitometry analysis was performed by ImageLab v6.1 and statistical differences were determined by one-way ANOVA with Dunnett’s post hoc test in GraphPad Prism software.

| Compound | Iso-induced cAMP accumulation (AUC) relative to DMSO (set to 100%) [1] [%] | effect on βARR1 binding to SRC [2] |
| --- | --- | --- |
| C=C1C(=O)[C@]23[C@H](O)[C@H]1CC[C@H]2[C@@]12CO[C@]3(O)[C@@H](O)[C@@H]1C(C)(C)CC[C@@H]2O [Cmpd-5, (1S,4aR,5S,6S,6aR,9S,11aS,11bS,14R)-1,5,6,14-tetrahydroxy−4,4-dimethyl-8-methylenedecahydro-1H-6,11b-(epoxymethano)-6a,9-methanocyclohepta[a]naphthalen-7(8H)-one] | 191 | reduced |
| C=C1C(=O)C2=CC1CCC(=O)C1(C)CCC(OCC)C(C)(C)C1CC2O (stereo not drawn) [Cmpd-46, (Z)-3-ethoxy-6-hydroxy-4,4,13a-trimethyl-9-methylene-1,2,3,4,4a,5,6,9,10,11,12,13a-dodecahydro-7,10-(metheno)benzo[11]annulene-8,13-dione] | 207 | markedly reduced |
| C=C1C(=O)OC2CC3(C)OC3CCC(C)=CC(OC(C)=O)C12 (stereo not drawn) [Cmpd-64, (Z)-4,10a-dimethyl-7-methylene-8-oxo-1a,2,3,6,6a,7,8,9a,10,10a decahydrooxireno[2’,3’:8,9]cyclodeca[1,2-b]furan-6-yl acetate] | 282 | markedly reduced |
